For this experiment, the target named is T1, human NaV1.8 (Homo sapiens, UniProt Q9Y5Y9).
T1 construct: The following NaV1.8 recombinant cell line was used for recordings: HEK-NaV1.8 (NM 006514.1); expressed in transfected cells; host or cells: HEK (recombinant cell line HEK-NaV1.8)
Description: Electrophysiology: automated whole-cell voltage-clamp (patch clamp, Qube384) recordings of sodium currents in HEK-NaV1.8 cells. Type of experiment: cell-based. The following applies: potency data either taken from inactivated or resting state, read-out: Potency category (human NaV1.8 IC50). An outline of the steps:
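Automated whole-cell patch clamp at room temperature on HEK cells expressing human NaV1.8, with 0.3% DMSO vehicle controls. State-dependent protocol from −120 mV tested resting (P1) and half-inactivated (P2, 4 s at V1/2) channels, plus 40-pulse trains at 10 and 20 Hz. Values after ~12 min compound exposure were normalised to baseline and corrected for vehicle run-down; IC50 from a 4-parameter logistic fit, taken from inactivated or resting state.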
(Patch clamp records ionic current or voltage across a cell membrane.)

T1 sequence (Q9Y5Y9 whole entry): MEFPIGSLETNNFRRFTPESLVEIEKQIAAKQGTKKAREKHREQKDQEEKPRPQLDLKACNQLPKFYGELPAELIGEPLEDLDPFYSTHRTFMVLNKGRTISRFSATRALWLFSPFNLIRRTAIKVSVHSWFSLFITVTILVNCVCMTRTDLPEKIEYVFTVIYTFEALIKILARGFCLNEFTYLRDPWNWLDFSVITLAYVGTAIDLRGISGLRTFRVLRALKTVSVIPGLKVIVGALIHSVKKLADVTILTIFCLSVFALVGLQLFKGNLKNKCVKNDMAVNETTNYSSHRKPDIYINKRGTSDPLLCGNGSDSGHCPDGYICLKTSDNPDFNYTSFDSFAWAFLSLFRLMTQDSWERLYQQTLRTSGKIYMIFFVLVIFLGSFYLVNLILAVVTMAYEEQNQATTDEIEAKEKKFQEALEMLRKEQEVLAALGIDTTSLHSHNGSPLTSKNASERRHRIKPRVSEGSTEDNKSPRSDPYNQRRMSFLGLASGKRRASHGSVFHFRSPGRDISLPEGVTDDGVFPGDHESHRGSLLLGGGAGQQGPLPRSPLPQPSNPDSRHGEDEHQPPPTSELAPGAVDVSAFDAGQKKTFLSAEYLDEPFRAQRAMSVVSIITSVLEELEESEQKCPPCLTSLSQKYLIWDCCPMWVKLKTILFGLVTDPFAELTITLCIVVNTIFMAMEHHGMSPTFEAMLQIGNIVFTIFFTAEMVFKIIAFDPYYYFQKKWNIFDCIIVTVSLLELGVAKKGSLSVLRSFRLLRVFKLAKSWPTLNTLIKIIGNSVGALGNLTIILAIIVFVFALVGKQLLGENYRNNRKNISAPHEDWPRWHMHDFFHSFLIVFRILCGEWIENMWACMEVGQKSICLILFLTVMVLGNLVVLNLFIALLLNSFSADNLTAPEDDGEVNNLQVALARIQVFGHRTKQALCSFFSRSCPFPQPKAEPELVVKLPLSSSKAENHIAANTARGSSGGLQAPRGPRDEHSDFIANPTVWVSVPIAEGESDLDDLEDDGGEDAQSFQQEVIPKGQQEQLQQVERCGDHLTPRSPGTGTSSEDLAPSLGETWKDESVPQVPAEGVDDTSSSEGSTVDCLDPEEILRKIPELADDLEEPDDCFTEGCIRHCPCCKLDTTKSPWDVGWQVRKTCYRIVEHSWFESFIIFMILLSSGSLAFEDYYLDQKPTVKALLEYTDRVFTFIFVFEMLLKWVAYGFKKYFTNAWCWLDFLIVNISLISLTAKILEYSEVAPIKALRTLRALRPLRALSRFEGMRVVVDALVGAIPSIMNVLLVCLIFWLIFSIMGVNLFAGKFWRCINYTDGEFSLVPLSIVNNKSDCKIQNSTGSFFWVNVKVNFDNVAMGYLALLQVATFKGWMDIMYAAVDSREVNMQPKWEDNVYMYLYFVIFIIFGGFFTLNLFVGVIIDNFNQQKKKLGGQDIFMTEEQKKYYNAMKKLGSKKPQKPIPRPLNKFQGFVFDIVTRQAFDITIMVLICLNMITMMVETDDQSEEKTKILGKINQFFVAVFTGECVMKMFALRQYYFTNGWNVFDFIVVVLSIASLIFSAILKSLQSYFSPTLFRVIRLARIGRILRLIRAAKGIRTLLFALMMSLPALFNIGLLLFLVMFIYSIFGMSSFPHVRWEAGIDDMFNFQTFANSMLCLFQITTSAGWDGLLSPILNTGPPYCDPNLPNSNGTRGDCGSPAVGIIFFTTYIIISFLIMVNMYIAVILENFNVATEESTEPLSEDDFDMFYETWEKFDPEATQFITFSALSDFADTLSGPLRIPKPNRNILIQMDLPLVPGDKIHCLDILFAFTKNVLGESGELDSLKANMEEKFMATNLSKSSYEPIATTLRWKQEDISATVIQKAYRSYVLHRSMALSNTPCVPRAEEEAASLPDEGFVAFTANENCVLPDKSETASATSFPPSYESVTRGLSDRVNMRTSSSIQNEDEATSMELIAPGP
T1 sequence (Q9NY72 23-215 partner): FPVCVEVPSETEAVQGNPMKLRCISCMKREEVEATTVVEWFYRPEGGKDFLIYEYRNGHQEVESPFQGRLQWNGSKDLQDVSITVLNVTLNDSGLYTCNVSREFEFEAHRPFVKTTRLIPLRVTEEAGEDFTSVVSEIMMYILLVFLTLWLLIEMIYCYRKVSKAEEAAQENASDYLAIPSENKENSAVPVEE

Turning to `Cc1c(C(C)(F)F)nn(CC2(C)CC(F)(F)C2)c1C(=O)Nc1ccnc(C(N)=O)c1` [SC-208, 4-(1-((3,3-difluoro-1-methylcyclobutyl)methyl)-3-(1,1-difluoroethyl)-4-methyl-1H-pyrazole-5-carboxamido)picolinamide], the IC50 was at most 100 nM.

On to `Cc1c(C(C)(F)F)nn(CC2(C)CC(F)(F)C2)c1C(=O)Nc1ccnc(S(N)(=O)=O)c1` [SC-209, 1-((3,3-difluoro-1-methylcyclobutyl)methyl)-3-(1,1-difluoroethyl)-4-methyl-N-(2-sulfamoylpyridin-4-yl)-1H-pyrazole-5-carboxamide], for which the IC50 was at most 100 nM.

With `Cc1c(C(C)(F)F)nn(CC2(C)CC(F)(F)C2)c1C(=O)Nc1ccnc(S(C)(=O)=O)c1` [SC-210, 1-((3,3-difluoro-1-methyleyclobutyl)methyl)-3-(1,1-difluoroethyl)-4-methyl-N-(2-(methylsulfonyl)pyridin-4-yl)-1H-pyrazole-5-carboxamide], the IC50 is at most 100 nM.

With `Cc1c(C(C)(F)F)nn(CC2CCC(F)(F)C2)c1C(=O)Nc1ccnc(S(N)(=O)=O)c1` (stereo not shown) [SC-211, 1-((3,3-difluorocyclopentyl)methyl)-3-(1,1-difluoroethyl)-4-methyl-N-(2-sulfamoylpyridin-4-yl)-1H-pyrazole-5-carboxamide], the IC50 is at most 100 nM.

Regarding `Cc1c(C(C)(F)F)nn(CC2(C)CCC(F)(F)C2)c1C(=O)Nc1ccnc(S(C)(=O)=O)c1` (stereo not drawn) [SC-213, 1-((3,3-difluoro-1-methyleyclopentyl)methyl)-3-(1,l-difluoroethyl)-4-methyl-N-(2-(methylsulfonyl)pyridin-4-yl)-1H-pyrazole-5-carboxamide], the IC50 was at most 100 nM.

As for `Cc1c(C(C)(F)F)nn(CC2CC(F)(F)C2)c1C(=O)Nc1ccnc(S(N)(=O)=O)c1` [SC-215, 1-((3,3-difluorocyclobutyl)methyl)-3-(1,1-difluoroethyl)-4-methyl-N-(2-sulfamoylpyridin-4-yl)-lH-pyrazole-5-carboxamide], the IC50 is at most 100 nM.

On to `NC(=O)c1cc(NC(=O)c2c(C(F)F)c(C3CC3)nn2CC2CCC(F)(F)C2)ccn1` (stereo not shown) [SC-216, 4-(3-cyclopropyl-1-((3,3-difluorocyclopentyl)methyl)-4-(difluoromethyl)-1H-pyrazole-5-carboxamido)picolinamide], for which the IC50 was at most 100 nM.

Turning to `CCc1nn(CC2CCC(F)(F)C2)c(C(=O)Nc2ccnc(C(N)=O)c2)c1C(F)(F)F` (stereo not shown) [SC-218, 4-(1-((3,3-difluorocyclopentyl)methyl)-3-ethyl-4-(trifluoromethyl)-1H-pyrazole-5-carboxamido)picolinamide], the IC50 was at most 100 nM.

With `Cc1c(C(C)(F)F)nn(CC2(C(F)(F)F)CC(F)(F)C2)c1C(=O)Nc1ccnc(S(C)(=O)=O)c1` [SC-220, 1-((3,3-difluoro-1-(trifluoromethyl)cyclobutyl)methyl)-3-(1,l-difluoroethyl)-4-methyl-N-(2-(methylsulfonyl)pyridin-4-yl)-1H-pyrazole-5-carboxamide], the IC50 is at most 100 nM.

Consider `Cc1c(C(C)(F)F)nn([C@@H](C)C2CC(F)(F)C2)c1C(=O)Nc1ccnc(S(C)(=O)=O)c1` [SC-222a], for which the IC50 fell in the range of 100 to 1000 nM.

For the compound `Cc1c(C(C)(F)F)nn([C@H](C)C2CC(F)(F)C2)c1C(=O)Nc1ccnc(S(C)(=O)=O)c1` [SC-222b], the IC50 was in the range of 1000 to 10000 nM.

For `Cc1c(C(C)(F)F)nn(CC2C[C@@H](F)[C@@H](F)C2)c1C(=O)Nc1ccnc(S(C)(=O)=O)c1` (stereo partly shown) [SC-224, 1-((3,4-difluorocyclopentyl)methyl)-3-(1,1-difluoroethyl)-4-methyl-N-(2-(methylsulfonyl)pyridin-4-yl)-1H-pyrazole-5-carboxamide], the IC50 fell in the range of 100 to 1000 nM.

For the compound `COc1nn(CC2CCC(F)(F)C2)c(C(=O)Nc2ccnc(S(C)(=O)=O)c2)c1C(F)(F)F` (stereo not shown) [SC-225, 1-((3,3-difluorocyclopentyl)methyl)-3-methoxy-N-(2-(methylsulfonyl)pyridin-4-yl)-4-(trifluoromethyl)-1H-pyrazole-5-carboxamide], the IC50 is at most 100 nM.

In the case of `CS(=O)(=O)c1cccc(NC(=O)c2ccnn2CC2CCCCC2)c1` [SC-226, 1-(cyclohexylmethyl)-N-(3-(methyIsulfonyl)phenyl)-1H-pyrazole-5-carboxamide], the IC50 was in the range of 1000 to 10000 nM.

Take `CS(=O)(=O)c1cccc(NC(=O)c2c(C(F)F)cnn2CC2CCCCC2)c1` [SC-229, 1-(cyclohexylmethyl)-4-(difluoromethyl)-N-(3-(methylsulfonyl)phenyl)-1H-pyrazole-5-carboxamide]: the IC50 is at most 100 nM.

`NS(=O)(=O)c1cccc(NC(=O)c2c(C(F)(F)F)c(C3CC3)nn2CC2CCC(F)(F)CC2)c1` [SC-230, 3-cyclopropyl-1-((4,4-difluorocyclohexyl)methyl)-N-(3-sulfamoylphenyl)-4-(trifluoromethyl)-lH-pyrazole-5-carboxamide]: the IC50 is at most 100 nM.

Consider `Cc1nn(CC2CCC(F)(F)CC2)c(C(=O)Nc2ccnc(C#N)c2)c1C` [SC-231, N-(2-cyanopyridin-4-yl)-1-((4,4-difluorocyclohexyl)methyl)-3,4-dimethyl-1H-pyrazole-5-carboxamide], for which the IC50 is 1000 to 10000 nM.

Consider `CC1(Cn2ncc(C(F)(F)F)c2C(=O)Nc2cccc(S(C)(=O)=O)c2)CCCCC1` [SC-232, 1-((1-methylcyclohexyl)methyl)-N-(3-(methylsulfonyl)phenyl)-4-(trifluoromethyl)-1H-pyrazole-5-carboxamide], for which the IC50 is at most 100 nM.

As to `CS(=O)(=O)c1cccc(NC(=O)c2c(C(F)(F)F)cnn2CC2(F)CCCCC2)c1` [SC-233, 1-((1-fluorocyclohexyl)methyl)-N-(3-(methylsulfonyl)phenyl)-4-(trifluoromethyl)-1H-pyrazole-5-carboxamide], the IC50 fell in the range of 100 to 1000 nM.

`Cc1nn(CC2COC2)c(C(=O)Nc2cccc(S(C)(=O)=O)c2)c1C(F)(F)F` [SC-234, 3-methyl-N-(3-(methyIsulfonyl)phenyl)-1-(oxetan-3-yImethyl)-4-(trifluoromethyl)-1H-pyrazole-5-carboxamide]: the IC50 was in the range of 1000 to 10000 nM.

`NS(=O)(=O)c1cccc(NC(=O)c2c(C(F)(F)F)cnn2CC2CCCC2(F)F)c1` (stereo not shown) [SC-235, 1-((2,2-difluorocyclopentyl)methyl)-N-(3-sulfamoylphenyl)-4-(trifluoromethyl)-1H-pyrazole-5-carboxamide]: the IC50 was at most 100 nM.

For `Cc1nn(CC2CCC(F)(F)CC2)c(C(=O)Nc2cccc(S(N)(=O)=O)c2)c1Cl` [SC-236, 4-chloro-1-((4,4-difluorocyclohexyl)methyl)-3-methyl-N-(3-sulfamoylphenyl)-1H-pyrazole-5-carboxamide], the IC50 is at most 100 nM.

In the case of `Cc1nn(CC2CCO2)c(C(=O)Nc2cccc(S(C)(=O)=O)c2)c1C(F)(F)F` (stereo not shown) [SC-237, 3-methyl-N-(3-(methyIsulfonyl)phenyl)-1-(oxetan-2-yimethyl)-4-(trifluoromethyl)-1H-pyrazole-5-carboxamide], the IC50 was in the range of 1000 to 10000 nM.

For `Cc1nn(CC2CCCCC2)c(C(=O)Nc2ccc(F)c(S(N)(=O)=O)c2)c1C(F)(F)F` [SC-238, 1-(cyclohexyimethyl)-N-(4-fluoro-3-sulfamoylphenyl)-3-methyl-4-(trifluoromethyl)-1H-pyrazole-5-carboxamide], the IC50 was at most 100 nM.

With `Cc1c(Cl)nn(CC2CCC(F)(F)CC2)c1C(=O)Nc1ccnc(C(N)=O)c1` [SC-239, 4-(3-chloro-1-((4,4-difluorocyclohexyl)methyl)-4-methyl-1H-pyrazole-5-carboxamido)picolinamide], the IC50 is 100 to 1000 nM.

For the compound `Cc1nn(CC2CCC(F)(F)CC2)c(C(=O)Nc2cncc(S(C)(=O)=O)c2)c1C(F)(F)F` [SC-241, 1-((4,4-difluorocyclohexyl)methyl)-3-methyl-N-(5-(methyisulfonyl)pyridin-3-yl)-4-(trifluoromethyl)-1H-pyrazole-5-carboxamide], the IC50 fell in the range of 100 to 1000 nM.

For `Cc1c(C(F)(F)F)nn(CC2CCC(F)(F)CC2)c1C(=O)Nc1cncc(S(N)(=O)=O)c1` [SC-242, 1-((4,4-difluorocyclohexyl)methyl)-4-methyl-N-(5-sulfamoylpyridin-3-yl)-3-(trifluoromethyl)-1H-pyrazole-5-carboxamide], the IC50 is 100 to 1000 nM.

On to `Cc1c(C(F)(F)F)nn(CC2CCC(F)(F)CC2)c1C(=O)Nc1cccc(S(N)(=O)=O)n1` [SC-243, 1-((4,4-difluorocyclohexyl)methyl)-4-methyl-N-(6-sulfamoylpyridin-2-yl)-3-(trifluoromethyl)-1H-pyrazole-5-carboxamide], for which the IC50 lay in the range of 100 to 1000 nM.

Turning to `Cc1nn(CC2CCCCC2)c(C(=O)Nc2cccc(S(N)(=O)=O)c2)c1C(F)(F)F` [SC-244, 1-(cyclohexyimethyl)-3-methyl-N-(3-sulfamoylphenyl)-4-(trifluoromethyl)-1H-pyrazole-5-carboxamide], the IC50 was at most 100 nM.

Turning to `NS(=O)(=O)c1cc(NC(=O)c2c(C(F)(F)F)c(C3CC3)nn2CC2CCC(F)(F)CC2)ccn1` [SC-246, 3-cyclopropyl-1-((4,4-difluorocyclohexyl)methyl)-N-(2-sulfamoylpyridin-4-yl)-4-(trifluoromethyl)-1H-pyrazole-5-carboxamide], the IC50 is at most 100 nM.

On to `Cc1nn(C[C@@H]2CCC(F)(F)C2)c(C(=O)Nc2cncc(C(N)=O)c2)c1C(F)(F)F` [SC-247R], for which the IC50 lay in the range of 1000 to 10000 nM.

For the compound `Cc1nn(C[C@H]2CCC(F)(F)C2)c(C(=O)Nc2cncc(C(N)=O)c2)c1C(F)(F)F` [SC-247S], the IC50 was in the range of 100 to 1000 nM.

For the compound `Cc1nn(C[C@@H]2CCC(F)(F)C2)c(C(=O)Nc2ccnc(C(N)=O)n2)c1C(F)(F)F` [SC-248R], the IC50 was in the range of 1000 to 10000 nM.

Consider `Cc1nn(C[C@H]2CCC(F)(F)C2)c(C(=O)Nc2ccnc(C(N)=O)n2)c1C(F)(F)F` [SC-248S], for which the IC50 lay in the range of 1000 to 10000 nM.

Usually IC50 stands for the point on the concentration scale where inhibition reaches its midpoint.

Values taken from patent publication US11999699B2, “Substituted pyrazole amides” (GRUENENTHAL GMBH, priority 2021, dated 2024).
